Results on three molecules are retold here after ChEMBL document CHEMBL1157499, “Synthesis and biological evaluation of 1-(benzenesulfonamido)-2-[5-(N-hydroxypyridin-2(1H)-one)]acetylene regioisomers: a novel class of 5-lipoxygenase inhibitors” (Bioorg Med Chem Lett, 2008).

SMILES strings stand for the structures. The source made the active and inactive calls. The rule behind the calls is not given here.

This assay concerns Rattus norvegicus. As to the kind of experiment: Antiinflammatory activity against carrageenan-induced paw edema in po dosed rat after 3 hrs. The format is functional.

`NS(=O)(=O)c1cccc(C#Cc2ccc(=O)n(O)c2)c1`: the outcome was inactive.

Take `NS(=O)(=O)c1ccc(C#Cc2ccc(=O)n(O)c2)cc1`: the result was inactive.

The molecule `NS(=O)(=O)c1ccccc1C#Cc1ccc(=O)n(O)c1` showed an ED50 of 86 mg/kg.
